Measurements as given in patent publication US8912121B2, “Herbicidal compositions comprising 4-amino-3-chloro-5-fluoro-6-(4-chloro-2-fluoro-3-methoxyphenyl)pyridine-2-carboxylic acid or a derivative thereof and certain PS II inhibitors” (Dow Agrosciences LLC, priority 2012, dated 2014).

System: LEFCH (Leptochloa chinensis, Chinese sprangletop)
Assay: In-water applied mixtures, transplanted paddy rice, greenhouse
Type: in vivo, Leptochloa chinensis (L.) Nees
Method: Weed seeds or nutlets of the desired test plant species were planted in puddled soil (mud) prepared by mixing a shredded, non-sterilized mineral soil (50.5 percent silt, 25.5 percent clay, and 24 percent sand, with a pH of about 7.6 and an organic matter content of about 2.9 percent) and water at a 1:1 volumetric ratio. The prepared mud was dispensed in 365 mL aliquots into 16-ounce (oz.) non-perforated plastic pots with a surface area of 86.59 square centimeters (cm^2) leaving a headspace of 3 centimeters (cm) in each pot Mud was allowed to dry overnight prior to planting or transplanting. Rice seeds were planted in Sun Gro MetroMix® 306 planting mixture, which typically has a pH of 6.0 to 6.8 and an organic matter content of about 30 percent, in plastic plug trays. Seedlings at the second or third leaf stage of growth were transplanted into 840 mL of mud contained in 32-oz. non-perforated plastic pots with a surface area of 86.59 cm^2 4 days prior to herbicide application. The paddy was created by filling the headspace of the pots with 2.5 to 3 cm of water. When required to ensure good germination and healthy plants, a fungicide treatment and/or other chemical or physical treatment was applied. The plants were grown for 4-22 days in a greenhouse with an approximate 14 h photoperiod which was maintained at about 29° C during the day and 26° C. during the night. Nutrients were added as Osmocote® (19:6:12, N:P:K+ minor nutrients) at 2 g per 16-oz. pot and 4 g per 32-oz. pot. Water was added on a regular basis to maintain the paddy flood, and supplemental lighting was provided with overhead metal halide 1000-Watt lamps as necessary. The plants were employed for testing when they reached the first through fourth true leaf stage.
Treatments consisted of the acid or esters of 4-amino-3-chloro-5-fluoro-6-(4-chloro-2-fluoro-3-methoxy-phenyl)pyridine-2-carboxylic acid (compound A) each formulated as an SC (suspension concentrate) and various herbicidal components alone and in combination. Forms of compound A were applied on an acid equivalent basis.
Other herbicidal components were applied on an active ingredient basis and included photosystem II (PSII)-inhibits propanil formulated as […] bentazon-sodium formulated as Basagran®, and simetryne (technical grade material).
Treatment requirements for each compound or herbicidal component were calculated based upon the rates being tested, the concentration of active ingredient or acid equivalent in the formulation, an application volume of 2 mL per component per pot, and an application area of 86.59 cm^2 per pot.
For formulated compounds, a measured amount was placed in an individual 100 or 200 mL glass vial and was dissolved in a volume of 1.25% (v/v) Agri-Dex® crop oil concentrate to obtain application solutions.
For technical grade compounds, a weighed amount was placed in an individual 100 to 200 mL glass vial and was dissolved in a volume of acetone to obtain concentrated stock solutions. […] The concentrated stock solutions obtained were diluted with an equivalent volume of an aqueous mixture containing 2.5% (v/v) crop oil concentrate so that the final application solutions contained 1.25% (v/v) crop oil concentrate.
Applications were made by injecting with a pipetter appropriate amounts of the application solutions, individually and sequentially, into the aqueous layer of the paddy. Control plants were treated in the same manner with the solvent blank. Applications were made so that all treated plant material received the same concentrations of acetone and crop oil concentrate.
The treated plants and control plants were placed in a greenhouse as described above and water was added as needed to maintain a paddy flood. After approximately 3 weeks the condition of the test plants as compared with that of the untreated plants was determined visually and scored on a scale of 0 to 100 percent where 0 corresponds to no injury or growth inhibition and 100 corresponds to complete kill. […]

Structure (SMILES)	Visual Weed Control (%) Obs (8.75 g ae/ha, 21 DAA)	Visual Weed Control (%) Obs (17.5 g ae/ha, 21 DAA)	Visual Weed Control (%) Obs (35 g ae/ha, 21 DAA)	Visual Weed Control (%) Obs (70 g ae/ha, 20 DAA)	Visual Weed Control (%) Obs (42.4 g ae/ha, 20 DAA)	Visual Weed Control (%) Obs (84.8 g ae/ha, 20 DAA)
COc1c(Cl)ccc(-c2nc(C(=O)OCc3ccccc3)c(Cl)c(N)c2F)c1F [Compound A Benzyl Ester, benzyl ester of 4-amino-3-chloro-5-fluoro-6-(4-chloro-2-fluoro-3-methoxy-phenyl)pyridine-2-carboxylic acid]	20%	30%	55%	80%		
COc1c(Cl)ccc(-c2nc(C(=O)O)c(Cl)c(N)c2F)c1F [Compound A Acid, 4-amino-3-chloro-6-(4-chloro-2-fluoro-3-methoxyphenyl)-5-fluoropyridine-2-carboxylic acid]	0%	0%			15%	55%
